Assay results as given in patent US8802439B2, “Methods for enhancing infectivity of retroviruses” (priority 2009, dated 2014).

What was measured:
Format in all cases: cell-based
nMLV-GFP = experiment: Infectivity of nMLV-GFP virions (RT-normalized), GFP fluorescence via FACS; conditions: produced with PiB; TZM, OMK, sMAGI, Vero, CV-1 target cells
Experimental: (§1) Infection assays for retrovirus: Single-round infections: CD4^+ TZM-bl 100,000 cells/well/mL were seeded onto 24-well plates 24 hours prior to infection. These cells were infected in quadruplicate to 24-well plates. Infectivity was scored using an enzymatic galactosidase activity assay. Specifically, infected TZM-bl cells were washed and lysed, and 20 μl of lysate was transferred to a 96-well plate for detecting β-galactosidase activity. 100 μl of reaction buffer Galacton-Star substrate (Applied Biosystems, Bedford, Mass.), diluted 1:50, was added to 20 μl of lysate, and the light emission was measured over 1 second in a microplate luminometer after 30 minutes incubation. […] Replication was monitored by p24 ELISA. […] Viruses were used to infect in duplicate wells, incubated for 48 hours, washed with PBS, trypsinized, fixed in 1% formaldehyde and subsequently analyzed by fluorescence-activated cell sorting (FACS) for percentage cells infected.
(§2) We further examined whether blocking Pin1 in producer cells can enhance the infectivity of retroviruses in different primate target cells. […] Infectivity was analyzed by GFP fluorescence via FACS. […] If more cells are infected than the number infected by viruses from untreated cells, this is expressed as a value above 100%—e.g. 2000 cells/10,000 vs 4000 cells/10,000 would be 100% and 200% respectively. […]

HIV-1 = experiment: Single-round infectivity on TZM-bl cells of HIV-1 produced in Pin1-inhibited 293T cells (Galacton-Star galactosidase assay); conditions: for boost of infectivity: TZM-bl target cells
From the text: Viral inocula from transfections above were normalized to equal virion particle number via p24 ELISA and used to infect target CD4^+ HeLa cells (1×10^5 TZM-bl). Infectivity was scored using the Galacton-Star enzymatic galactosidase activity assay, and infectivity quantified by relative […] units (R.F.U).
Plasmids: Laboratory-adapted provirus NL4.3, and the CypA-independent NL4.3 CAi2 were kindly provided by Akio Adachi (Department of Virology, Institute of Health Biosciences, The University of Tokushima Graduate School, JAPAN). Mutant R9G89V was a gift from P. Gallay (TSR1) as were NL4.3-GFP and SIV-GFP (originally Dana Gabuzda, Dana Farber Cancer Institute). NL4.3 A92E was kindly provided by W. Phares (Genetics Unit, Novartis Forschungsinstitut, Vienna, Austria). R9Δgp160 plasmid clone was kindly provided by C. Aiken (Vanderbilt Medical Center). VSV-G (CMV-VSV-G) was kindly provided by D. Trono (École Polytechnique Fédérale de Lausanne). Both bMLV-GFP and nMLV-GFP in the form of pCIG3-N, pCIG3-B as well as pCNCG were kindly provided by J. Stoye (National Institute for Medical Research, UK). Isomerase mutant Pin1 (pFLAG-Pin1R68,69A) and WW-domain mutant Pin1 (pFLAG-Pin1 W34A) were constructed by site-directed mutagenesis. Pseudotyping experiments were performed using DNA constructs encoding the VSV-G generously provided by D. Trono. Human Pin1 was cloned into pFLAG (Sigma-Aldrich) making pFLAG-Pin1. Viruses were produced by transfection of 293T cells using either GeneJuice (Novagen) or calcium phosphate. […] All viruses were harvested 24-48 hours post-transfection and filtered (0.2-μM filter, Steriflip Millipore). HIV-1 viruses were normalized by p24 ELISA (Alliance HIV-1 p24 Antigen ELISA Kit, Perkin Elmer), and/or were normalized via the EnzChek® Reverse Transcriptase Assay Kit (E-22064) (Molecular Probes).
Infection assays for retrovirus: Single-round infections: CD4^+ TZM-bl 100,000 cells/well/mL were seeded onto 24-well plates 24 hours prior to infection. These cells were infected in quadruplicate to 24-well plates. Infectivity was scored using an enzymatic galactosidase activity assay. Specifically, infected TZM-bl cells were washed and lysed, and 20 μl of lysate was transferred to a 96-well plate for detecting β-galactosidase activity. 100 μl of reaction buffer Galacton-Star substrate (Applied Biosystems, Bedford, Mass.), diluted 1:50, was added to 20 μl of lysate, and the light emission was measured over 1 second in a microplate luminometer after 30 minutes incubation. For human PBMC infections, cells were exposed to 10 ng of wild-type virus for 6 hours, washed, and split into two flasks: one with 10 μM PiB added on day 0 and 3, and one without PiB. Replication was monitored by p24 ELISA. For measuring infectivity of GFP-virus, 50,000 TZMb1, sMAGI, OMK, Vero, BSC-1 and CV-1 cells/well/mL were seeded onto 6-well plates respectively 24 hours prior to infection. Viruses were used to infect in duplicate wells, incubated for 48 hours, washed with PBS, trypsinized, fixed in 1% formaldehyde and subsequently analyzed by fluorescence-activated cell sorting (FACS) for percentage cells infected.
To examine a potential role for Pin1 in HIV-1 replication we used two inhibitors of Pin1: juglone and PiB. […] 293T cells were transfected with a proviral construct encoding wild-type HIV-1 in the presence or absence of PiB or juglone.

bMLV-GFP = experiment: Infectivity of bMLV-GFP virions (RT-normalized), GFP fluorescence via FACS
Experimental: 293T cells were transfected with HIV-1-GFP, SIV-GFP, bMLV-GFP, and nMLV-GFP proviral constructs, and in each case CMV-VSV-G, in the presence or absence of PiB or excess Pin1 as described above. Released virions were normalized via RT assay (EnzChek® Reverse Transcriptase Assay Kit), and infectivity on naïve TZMb1 cells was analyzed by GFP fluorescence via FACS (% cells infected).
as §1, §2
In addition to human producer cells, we also examined effect of blocked Pin activity on infectivity of viruses produced in mouse cell lines and nonhuman primate cell lines. […] Infectivity was analyzed by GFP fluorescence via FACS. […]

[1] = produced in 293T with 10 μm PiB, TZMb1

CCOC(=O)CN1C(=O)c2ccc3c4c(ccc(c24)C1=O)C(=O)N(CC(=O)OCC)C3=O [PiB, diethyl-1,3,6,8-tetrahydro-1,3,6,8-tetraoxobenzo[lmn][3,8]phenanthroline-2,7-diacetate]
infectivity of nMLV-GFP in primate target cell panel (nMLV-GFP): enhanced infectivity | HIV-1 infectivity after treatment of target cells (HIV-1; TZM-bl pre-incubated with 0, 2, 10 μM PiB for 24 hours before VSV-G pseudotyped virus, read 48 hours post-infection): no effect on HIV-1 infectivity | infectivity of VSV-G pseudotyped HIV-1 lacking gp160 (NL4.3 Δenv) (HIV-1; produced in 293T in the presence of 2 μM or 10 μM PiB, TZM-bl): enhanced | boost of wild-type NL4.3 virus in the FIG. 3H experiment (HIV-1; [1]): rather mild boost | infectivity of CypA-deficient R9G89V mutant HIV-1 (HIV-1; [1]): dramatically boosted | boost of infectivity (HIV-1; viruses produced in 293T in the presence of 2.0 μM inhibitor): 2 fold | boost of infectivity (HIV-1; viruses produced in 293T in the presence of 10 μM PiB): 8 fold | infectivity of MLV produced in mouse embryonic fibroblasts (bMLV-GFP; MEF producer cells with PiB, TZM target cells): enhanced infectivity | boost of bMLV-GFP infectivity (bMLV-GFP; produced in 293T with PiB, TZMb1 cells): 2 fold | infectivity of bMLV-GFP in primate target cell panel (bMLV-GFP; produced with PiB, TZM, OMK, sMAGI, Vero, CV-1 target cells): enhanced infectivity
